The source of these data is patent US12103939B2, “Solid pharmaceutical gold-based composition” (KING FAHD UNIVERSITY OF PETROLEUM AND MINERALS, priority 2019, dated 2024).

The test system of data set [1] is MCF-7 breast cancer cell line. Put plainly: Cytotoxicity assay (MTT, 72 h). In kind it is cell-based, human. As to conditions: MCF-7, MTT after 72 h, mean (SD); read-out: Half-maximal inhibitory concentration (IC50). On the procedure:
(§1) R-ME-180 and A2780cis cells were maintained in 1 μM cisplatin. Adipose-derived stromal cells were maintained in MSCGM BulletKit medium (Lonza). All cell lines were cultured at 37° C. in a 5% CO2, fully humidified atmosphere
(§2) Cell lines were seeded in 96-well flat-bottomed microplates in 100 μL culture medium at the following densities: DU145, PC3 and MCF-7 cells (2.5×10^3 cells/well); A2780, A2780cis, ME-180, R-ME-180 and A549 cells (4.0×10^3 cells/well); and MG-63 cells (2.0×10^3 cells/well). Cells were allowed to adhere for 24 h. Then the medium was replaced with fresh medium alone or with one of the gold(III) complexes at increasing concentrations from 0 to 100 μM. The reference drugs cisplatin (0-100 μM) and doxorubicin (0-1 μM) were included as positive controls for growth inhibition. After 72 h, cell viability was assayed using the MTT assay.
(§3) See Chou T. C.; Talalay P. Quantitative analysis of dose-effect relationships: the combined effects of multiple drugs or enzyme inhibitors. […] 22, 27-55, incorporated herein by reference in its entirety. IC50 values were reported as mean (SD). For drug-resistance cell lines, fold resistance (FR) was calculated as the ratio of the IC50 of the resistant cell line to the IC50 of the parental cell line.

Data set [2] concerns cisplatin- and doxorubicin-resistant A2780cis clone. Nature of the data set: Cytotoxicity assay (MTT, 72 h). In kind it is cell-based, human. Here is the method:
as §1, §2, §3

The subject of data set [3] is DU145 prostate cancer cell line. Nature of the data set: Cytotoxicity assay (MTT, 72 h). In kind it is cell-based, human. The following applies: DU145, MTT after 72 h, mean (SD); read-out: Half-maximal inhibitory concentration (IC50). Here is the method:
as §1, §2, §3

Data set [4] deals with PC3 prostate cancer cell line. Put plainly: Cytotoxicity assay (MTT, 72 h). In kind it is cell-based, human. Here is the method: as §1, §2, §3
Data set [5] has as its system A549 lung cancer cell line. Put plainly: Cytotoxicity assay (MTT, 72 h). In kind it is cell-based, human. As to conditions: A549, MTT after 72 h, mean (SD); read-out: Half-maximal inhibitory concentration (IC50). Here is the method:
as §1, §2, §3

For data set [6], the system named is MG-63 osteosarcoma cell line. Put plainly: Cytotoxicity assay (MTT, 72 h). In kind it is cell-based, human. The following applies: MG63, MTT after 72 h, mean (SD); read-out: Half-maximal inhibitory concentration (IC50). On the procedure:
as §1, §2, §3

Data set [7] has as its system cisplatin-resistant R-ME-180 clone. Nature of the data set: Cytotoxicity assay (MTT, 72 h). In kind it is cell-based, human. Here is the method:
as §1, §2, §3

The test system of data set [8] is PC3 cells. Nature of the data set: Reactive oxygen species production (H2DCFDA). In kind it is cell-based, human. The following applies: PC3, C6 at IC50 and IC75, 24 h. Here is the method:
The production of reactive oxygen species (ROS) was evaluated using 2′,7′-dichlorodihydrofluorescein diacetate (H2DCFDA) (H2-DCF, DCF) (Invitrogen). Cells were pretreated with the antioxidant N-acetyl-L-cysteine (NAC; 5 mM) (Sigma) for 30 min before C6 was added. After 24 h of C6 treatment, cells were harvested and viable cells were counted by trypan blue dye exclusion. Then cells were washed, stained with 1 μM H2DCFDA for 30 min at 37° C., and finally ROS production was analyzed by flow cytometry.

For data set [9], the system named is PC3 cell xenografts. Nature of the data set: Human prostate tumor xenograft experiment. In kind it is in vivo, female athymic nude mice. On the procedure: Animal experiments were approved by the Italian Ministry of Health (no. 671/2015/PR). Ten 4-week-old female athymic nu/nu (nude) mice were purchased from Envigo. PC3 cells (3×10^6 in a 0.1 mL solution of Matrigel 1:3 in PBS) were inoculated subcutaneously into the right flank of each mouse. Body weight and tumors were measured three times a week, and tumor volumes were calculated according to the formula: (width^2×length×3.14)/6. When tumors reached a volume of ca. 120 mm^3, mice were divided into two groups of five animals each. Mice were treated every other day with an intratumoral injection of 2.5 mg/kg C6 or an equal volume of vehicle (10% DMSO, 20% Cremophor Sigma-Aldrich, 70% PBS). Mice were killed on day 32 when control tumors had reached about 1300 mm^3.
Background: Xenograft models place foreign cells or tissue in a host animal.

Data set [10] has as its system normal human adipose-derived stromal cells (ADSCs). Put plainly: Growth inhibition in adipose-derived stromal cells (MTT, 72 h). In kind it is cell-based. The following applies: MTT after 72 h. Here is the method: Human adipose-derived stromal cells (ADSCs) were from Lonza (Verviers, Belgium). ADSCs were maintained in MSGM bullet kit (Lonza) and experiments were performed in DMEM (Cambrex Bio Science, Milan, Italy) supplemented with 10% FBS. To evaluate effects of C6, ADSCs were seeded in 96-well flat-bottomed microplates (5.0×10^3 cells in 100 μL per well) and incubated for 24 h (to allow cell adhesion) before drug testing. The medium was removed and replaced with fresh medium containing C6 at increasing concentrations (from 0.1 to 1 μM). Cells were incubated at 37° ° C. for 72 h. Each treatment was performed in triplicate. Cell growth was measured using the MTT assay.

For data set [11], the system named is thioredoxin reductase (TrxR). Nature of the data set: Thioredoxin reductase activity in lysates of treated PC3 cells. As to conditions: PC3, C6 at IC25, IC50, IC75, 12 h.
Protocol: All experimental conditions were tested in triplicate and experiments were done three times to calculate means and SD.
Thioredoxin reductase (TrxR) (EC 1.8.1.9) was assayed using the Thioredoxin Reductase Assay Kit (Sigma-Aldrich). […] Enzyme activity was determined reading absorbance at 412 nm using a spectrophotometer (Biomate 3 Thermo Spectronic). The enzymatic activity was normalized to the protein concentration, determined using the Bio-Rad protein assay (Protein Assay Dye Reagent Concentrate, Bio-Rad Laboratories), and expressed as percentage of control (no C6).
The test system of data set [12] is 20S proteasome. Put plainly: 20S proteasome activity in lysates of treated PC3 cells. In kind it is cell-based, human. The following applies: PC3, 12 h. On the procedure:
Proteasome activity (EC 3.4.25.1) was evaluated on the same cell lysates as used to assay TrxR. Proteasome activity was assayed in cytosolic extracts using the 20S Proteasome Activity Assay kit APT280 (Merck Millipore) and a computer-interfaced GeniusPlus microplate reader (Tecan).

Data set [13] has as its system PC3 cells. Nature of the data set: Double-stranded DNA breaks (histone H2A.X phosphorylation). In kind it is cell-based, human. The following applies: PC3, 24 h. On the procedure:
The presence of double-stranded DNA breaks was assessed 24 h after treatment with C6 by fixing and permeabilizing cells with Fix & Perm medium A and B (Invitrogen) and staining with FITC anti-H2A.X Phospho (Ser139) Antibody (BioLegend, San Diego, USA). Stained cells were evaluated by flow cytometry.

For data set [14], the system named is PC3 cells. Nature of the data set: In vitro scratch assay (cell migration). In kind it is cell-based, human. The following applies: PC3, 3 h pretreatment with C6 (IC50), 36 h after scratch; control about 10%. On the procedure:
Cell migration was assessed using the in vitro scratch assay. Briefly, cells were grown to confluence and then treated with C6 (IC50). After 3 h, monolayers were washed twice with PBS, scraped with a pipette tip to create a “wound” in the monolayer, and washed again. Culture medium with 2% (not 10%) FBS was added and the cells were cultured for 36 h. Wounds were photographed every 12 h using an inverted microscope (EclipseTS/100, Nikon) at magnification 4×. Migration was assessed by measuring the cell-free area (in pixels) with ImageJ tool software after 12, 24 and 36 h.

Structures are written as SMILES. “And” between values parts separate entries of the source, which are not always exact repeats. Equal entries are not always repeated.

Turning to `C[N+](C)=C1[S][Au-]2([S]1)[n+]1ccc[n+]3c1-c1[n+]2ccc[n+]1[Au-]31[S]C(=[N+](C)C)[S]1.[Cl-].[Cl-].[Cl-].[Cl-]` [C6, [Au2(BPM)(DMDTC)2]Cl4], the IC50 in data set [1] is 500 nM; in data set [2] (A2780cis, MTT after 72 h, mean (SD)), 300 nM; in data set [3], 700 nM; in [4] (PC3, MTT after 72 h, mean (SD), read-out: Half-maximal inhibitory concentration (IC50)), 600 nM and 620 nM; in data set [5], 800 nM; in data set [6], 800 nM. The IC50 was 4900 nM in data set [7] (R-ME-180, MTT after 72 h, mean (SD)) and 1400 nM in data set [10]. Also, the “FR (A2780cis/A2780), fold resistance” value in [2] (IC50 A2780cis / IC50 A2780) turned out to be 1.2. The molecule further came in with an IC25 in [4] (PC3) of 310 nM. Further, the IC75 in [4] (PC3) worked out at 1850 nM. In addition, the “FR (R-ME-180/ME-180), fold resistance” value in [7] (IC50 R-ME-180 / IC50 ME-180) is on record as 0.9. Besides, in data set [8], the ROS production result is “induced ROS production in a dose-dependent manner”. In addition, the “inhibitory effect on tumor growth” value in [9] (day 32, 2.5 mg/kg intratumoral every other day, vs vehicle) was 71%. The molecule also came in with a mean tumor volume in [9] (day 32, 2.5 mg/kg intratumoral every other day, control 1327 mm^3) of 385 mm^3. Besides, in data set [9] (xenografted mice, 2.5 mg/kg intratumoral), the “weight of the animals” value is given as “did not affect the weight of the animals”. For the same molecule, the TrxR enzymatic activity entry in data set [11] was “dose-dependent decrease of its enzymatic activity”. In data set [12], the 20S proteasome activity result was “dose-dependent inhibitory effect”. Further, the “double-stranded DNA breaks (phosphorylation of histone H2A.X)” value in data set [13] is recorded as “increase in phosphorylation of histone H2A.X”. Besides, the “remaining uncovered area in scratch assay” value in [14] is recorded as “about 40%”.

The term IC25 denotes the concentration at which the effect reaches the 25% level. Read a low IC25 as an effect from little substance. The IC75 is the concentration at which the effect reaches the 75% level.
